According to patent US20260193278A1, “NOVEL PHTHALOCYANINE COMPOUNDS AND THE USE THEREOF FOR THE TREATMENT OF DISEASES” (RHODES UNIVERSITY, priority 2022, published 2026):

Columns and labels:
Format in all cases: cell-based
[1] = tested on: S. aureus; test: Dark toxicity against S. aureus, concentration study at 0 min (CFU counting); conditions: for Staph log CFU/ml (logarithmic reduction value) / Staph μM (concentration corresponding to the logarithmic reduction): in the dark, at 0 min; for Staph log CFU/ml (logarithmic reduction value): at the concentration of the μM column; for Staph μM (concentration corresponding to the logarithmic reduction): range tested 0-10 μM
Method: (§1) 500 μM stock solutions of the samples were prepared in ultra-pure water (5% DMSO) and used at different concentrations in the biological assays.
(§2) Two bacterial strains were used for the PACT studies; S. aureus as a gram-(+) bacterium and E. coli as a gram-(−) negative bacterium. Stock cultures were grown aerobically in 6 mL of nutrient broth incubated at 37° C. on a rotary shaker (~200 rpm) to obtain bacteria cultures. The incubation was maintained until the optical density of the culture at 600 nm was determined to be between 0.6 and 0.8. The resulting bacterial solution was centrifuged to remove the broth, and bacterial cells were washed three times with PBS. The solution of the bacteria was prepared by diluting with PBS to obtain […] bacteria solutions corresponding to ~10^9 and ~10^8 colony forming units (CFU)/mL, respectively.
(§3) The bacteria/photosensitizer mixtures were incubated in an oven equipped with a shaker for 30 min in the dark at 37° C. before plating. 100 μL of solution was taken from the suspension and was immediately inoculated on agar plates to determine the activity at 0 min without treatment. The number of colonies was then counted on each plate after 18 h of incubation at 37° C. Control treatments were performed in the absence of photosensitizer. All experiments were carried out three times. The data for CFU/mL were converted to the logarithmic form.

[2] = tested on: E. coli; test: Dark toxicity against E. coli, concentration study at 0 min (CFU counting); conditions: in the dark; for Ecoli log CFU/ml (logarithmic reduction value): at the concentration of the μM column; for Ecoli μM (concentration corresponding to the logarithmic reduction): range tested 0-15 μM
Method: as §1, §2, §3

[3] = tested on: MCF-7 (human breast adenocarcinoma) cells; test: In vitro dark cytotoxicity, MCF-7 cells (anticancer studies); conditions: MCF-7, dark; for Min. Death conc. / Cell death: 24 h; for Cell death: at the Min. Death conc.
Method: MCF-7 (human breast adenocarcinoma) cells were cultured in Dulbecco's modified Eagle's medium-10% fetal bovine serum (DMEM-FBS) and PSA (penicillin/streptomycin/Amphotericin B) at 37° C. in an incubator (5% CO2) in 75 cm^2 vented flasks. The cultures were grown as a monolayer. The growth cells were transferred to well plates by trypsinizing with 0.25% trypsin-EDTA. The Pc stock concentrations were prepared by separately dissolving them in DMSO (1%) and diluting in water and the Pc gradient concentration was prepared by taking known aliquots from the stock and finally made up to marked volume with supplemented media with phenol red.
It was studied from […] both in the dark. 100 μL each of the newly prepared gradient Pcs concentration of 0 μg/mL (control), 5 μg/mL, 10 μg/mL, 20 μg/mL, 40 μg/mL, 60 μg/mL 80 μg/mL, 100 μg/mL and 120 μg/mL were administered on the incubated seeded cells. The 96 well cell culture plates containing the cells and the Pcs were incubated at 37° C. and 5% CO2 in the dark for 24 h. After 24 h treatment, the wells were rinsed with 100 μL DPBS. Cell survival was expressed as percentage of control cells (cells without Pcs). Post treatment cell viability was measured using the cell proliferation […] reagent (WST-1 assay) on a Synergy 2 multi-mode microplate reader (BioTek®) at a wavelength of 450 nm according to the following equation 1.

[4] = tested on: S. aureus; test: Photodynamic inactivation of S. aureus (with irradiation); conditions: after irradiation 20 min at 0.5, 1 and 2.5 μM
Method: as §2
as §3, with “Pc solutions were prepared by dissolving in water containing 5% DMSO and applied over the range of 0-10 μM for S. aureus and 0-15 μM for E. coli. The bacteria/photosensitizer” for “The bacteria/photosensitizer”

Compound | log reduction (dark toxicity) ([1]; dark, 0 min, at 5 and 10 μM) | Staph log CFU/ml (logarithmic reduction value) [1] [log CFU/ml] | Staph μM (concentration corresponding to the logarithmic reduction) [1] [μM] | Ecoli log CFU/ml (logarithmic reduction value) [2] [log CFU/ml] | Ecoli μM (concentration corresponding to the logarithmic reduction) [2] [μM] | optimal concentration to kill the cancer cells [3] [µM] | Min. Death conc. [3] [µM] | Cell death [3] [%] | cancer cells killed at the optimal concentration ([3]; at the optimal concentration) [%] | log reduction (photocytotoxicity) [4]
C[n+]1c(-c2ccc(Oc3ccc4c(c3)C3=Nc5c6ccc(Oc7ccc(-c8[nH]c9cc(Cl)cc(Cl)c9[n+]8C)cc7)cc6c6[n]5[Zn][n]5c(c7ccc(Oc8ccc(-c9[nH]c%10cc(Cl)cc(Cl)c%10[n+]9C)cc8)cc7c5=NC5=NC(=N6)c6cc(Oc7ccc(-c8[nH]c9cc(Cl)cc(Cl)c9[n+]8C)cc7)ccc65)=NC4=N3)cc2)[nH]c2cc(Cl)cc(Cl)c21.[I-].[I-].[I-].[I-] [Compound 193] | 9.63 | 9.61 | 4 | 8.79 | 1 | 40 | 40 | 72.7 | 72.7 | 9.63
C[n+]1c(-c2ccc(Oc3ccc4c(c3)C3=Nc5c6ccc(Oc7ccc(-c8[nH]c9ccc(Cl)cc9[n+]8C)cc7)cc6c6[n]5[Cu][n]5c(c7ccc(Oc8ccc(-c9[nH]c%10ccc(Cl)cc%10[n+]9C)cc8)cc7c5=NC5=NC(=N6)c6cc(Oc7ccc(-c8[nH]c9ccc(Cl)cc9[n+]8C)cc7)ccc65)=NC4=N3)cc2)[nH]c2ccc(Cl)cc21.[I-].[I-].[I-].[I-] [Compound 244] | – | 9.24 | 10 | 8.79 | 15 | – | 80 | 90.8 | – | –
C[n+]1c(-c2ccc(Oc3ccc4c(c3)C3=Nc5c6ccc(Oc7ccc(-c8[nH]c9cc(Cl)c(Cl)cc9[n+]8C)cc7)cc6c6[n]5[Co][n]5c(c7ccc(Oc8ccc(-c9[nH]c%10cc(Cl)c(Cl)cc%10[n+]9C)cc8)cc7c5=NC5=NC(=N6)c6cc(Oc7ccc(-c8[nH]c9cc(Cl)c(Cl)cc9[n+]8C)cc7)ccc65)=NC4=N3)cc2)[nH]c2cc(Cl)c(Cl)cc21.[I-].[I-].[I-].[I-] [Compound 208] | – | 9.31 | 2 | 8.79 | 1 | – | 20 | 78.4 | – | –
Tetrakis [4-(4-(5-bromo-1H-benzo[d]imidazol-2-yl)phenoxy phthalocyaninato] zinc(II) tetraiodide [Compound 218] | – | 9.15 | 0.5 | 8.78 | 1 | – | 10 | 56.6 | – | –
C[n+]1c(-c2ccc(Oc3ccc4c(c3)C3=Nc5c6ccc(Oc7ccc(-c8[nH]c9ccc(Cl)cc9[n+]8C)cc7)cc6c6[n]5[Co][n]5c(c7ccc(Oc8ccc(-c9[nH]c%10ccc(Cl)cc%10[n+]9C)cc8)cc7c5=NC5=NC(=N6)c6cc(Oc7ccc(-c8[nH]c9ccc(Cl)cc9[n+]8C)cc7)ccc65)=NC4=N3)cc2)[nH]c2ccc(Cl)cc21.[I-].[I-].[I-].[I-] [Compound 243] | – | 9.24 | 4 | 8.79 | 2.5 | – | 120 | 62.4 | – | –
C[n+]1c(-c2ccc(Oc3ccc4c(c3)C3=Nc5c6ccc(Oc7ccc(-c8[nH]c9ccc(Cl)cc9[n+]8C)cc7)cc6c6[n]5[Zn][n]5c(c7ccc(Oc8ccc(-c9[nH]c%10ccc(Cl)cc%10[n+]9C)cc8)cc7c5=NC5=NC(=N6)c6cc(Oc7ccc(-c8[nH]c9ccc(Cl)cc9[n+]8C)cc7)ccc65)=NC4=N3)cc2)[nH]c2ccc(Cl)cc21.[I-].[I-].[I-].[I-] [Compound 242] | – | 9.24 | 0.5 | 8.79 | 2.5 | – | 120 | 49.8 | – | –
C[n+]1c(-c2ccc(Oc3ccc4c(c3)C3=Nc5c6ccc(Oc7ccc(-c8[nH]c9cc(F)cc(Br)c9[n+]8C)cc7)cc6c6[n]5[Zn][n]5c(c7ccc(Oc8ccc(-c9[nH]c%10cc(F)cc(Br)c%10[n+]9C)cc8)cc7c5=NC5=NC(=N6)c6cc(Oc7ccc(-c8[nH]c9cc(F)cc(Br)c9[n+]8C)cc7)ccc65)=NC4=N3)cc2)[nH]c2cc(F)cc(Br)c21.[I-].[I-].[I-].[I-] [Compound 229] | – | 9.25 | 0.5 | 8.79 | 10 | – | 10 | 39.4 | – | –
